Data as given in patent US20260265699A1, “STANDARDISING PLURIPOTENT STEM CELLS” (United Kingdom Research and Innovation, priority 2023, published 2026).
Entries after “also recorded” stand apart in the source; their conditions may differ.

Key:
Format in all cases: cell-based, human
[1] = tested on: PSC lines that did not readily differentiate into neural tissue; test: Cerebral organoid differentiation, unguided protocol (STEMdiff Cerebral Organoid Kit), panel of bad differentiator lines; conditions: for Effect: organoid morphology: inhibition of Wnt at organoid stage, added at embedding stage
Description: The so called “unguided protocol” relies on the natural propensity of PSCs to differentiate to neural fate and specifically forebrain when not exposed to any growth factors. The inventors cultured PSCs in Stemflex (Thermo) medium on plates coated with Matrigel growth factor reduced (Corning) and for generation of brain organoids they used STEMdiff Cerebral Organoid Kit (Stemcell Technologies). […] To address this variability that plagues not only the neural organoid field but also others that rely on 2D and 3D differentiation to a variety of cell types, the inventors investigated the potential sources of this variability in PSCs and potential treatments to address this problem or, in other words, to standardise the performance of PSCs during differentiation.
Because neural differentiation represents the default program upon pluripotency exit, the ability of a cell line to undergo such unguided differentiation is also a good indication of their pluripotent state. The other approach was to in depth characterise PSC lines that either produce good or bad organoids by proteomics and phosphoproteomics, analysis of already available bulk RNAseq data to learn about their transcriptome, and by ATACseq to learn about open chromatin patterns. […] Based on the combination of information gathered from both approaches, a number of treatments were chosen to test on the bad differentiators.

[2] = tested on: PS cells; test: PSC basal (maintenance) culture; conditions: inhibition of SRC at basal culture, prolonged exposure
Description: (§1) The so called “unguided protocol” relies on the natural propensity of PSCs to differentiate to neural fate and specifically forebrain when not exposed to any growth factors. The inventors cultured PSCs in Stemflex (Thermo) medium on plates coated with Matrigel growth factor reduced (Corning) and for generation of brain organoids they used STEMdiff Cerebral Organoid Kit (Stemcell Technologies). Despite these highly standardised conditions (FIG. 1A), the outcome of the protocol (i.e. the identity and quality of the tissues produced) can vary depending on the cell line that was used in the protocol or even between different batches of the same line (FIGS. 1 B and C). This makes producing good quality organoids from different lines difficult and unpredictable. To address this variability that plagues not only the neural organoid field but also others that rely on 2D and 3D differentiation to a variety of cell types, the inventors investigated the potential sources of this variability in PSCs and potential treatments to address this problem or, in other words, to standardise the performance of PSCs during differentiation.
There is a huge body of literature describing potential sources of PSC variability and a similar number of publications about ways to address this in a particular context, for example to increase efficiency of differentiation towards a certain tissue type. […]

[3] = tested on: sojd3 cells; test: Cerebral organoid differentiation, unguided protocol, sojd3 line; conditions: inhibition of Wnt in culture, Stemflex with 2-3 μM IWP2, long term (>8 passages)
Description: (§2) The so called “unguided protocol” relies on the natural propensity of PSCs to differentiate to neural fate and specifically forebrain when not exposed to any growth factors. The inventors cultured PSCs in Stemflex (Thermo) medium on plates coated with Matrigel growth factor reduced (Corning) and for generation of brain organoids they used STEMdiff Cerebral Organoid Kit (Stemcell Technologies). Despite these highly standardised conditions (FIG. 1A), the outcome of the protocol (i.e. the identity and quality of the tissues produced) can vary depending on the cell line that was used in the protocol or even between different batches of the same line (FIGS. 1 B and C). This makes producing good quality organoids from different lines difficult and unpredictable. To address this variability that plagues not only the neural organoid field but also others that rely on 2D and 3D differentiation to a variety of cell types, the inventors investigated the potential sources of this variability in PSCs and potential treatments to address this problem or, in other words, to standardise the performance of PSCs during differentiation. […]
(§3) To establish such an approach, the inventors analysed the epigenetic state of human pluripotent stem cells and the role of epigenetics in development. […]

[4] = tested on: burb1 cells; test: Cerebral organoid differentiation, unguided protocol, burb1 line
Description: as §2, §3

[5] = tested on: fiaj1 cells; test: Cerebral organoid differentiation, unguided protocol, fiaj1 line; conditions: fiaj 1
Description: as §1
(§4) Because neural differentiation represents the default program upon pluripotency exit, the ability of a cell line to undergo such unguided differentiation is also a good indication of their pluripotent state. […]

[6] = tested on: kolf2 cells (organoid non-competent batch); test: Cerebral organoid differentiation, unguided protocol, bad batch of kolf2; conditions: generation of organoids with MEK inhibition
Description: as §1, §4

Molecule: COc1cccc(-c2cn(-c3ccc(CCN4CCC(O)CC4)cc3)c3ncnc(N)c23)c1 [CGP-77675]
- Effect: organoid differentiation outcome ([1]; inhibition of SRC at basal culture): Worse organoid differentiation
- Effect on PS cells in basal culture [2]: outcome, differentiation of PS

Molecule: Cc1ccc2nc(NC(=O)CSc3nc4c(c(=O)n3-c3ccccc3)SCC4)sc2c1 [IWP2]
- Effect: organoid generation / brain organoid competency [3]: did not improve; also recorded: no improvement in sojd3
- Effect: organoid generation / brain organoid competency ([4]; inhibition of Wnt in culture, Stemflex with 2-3 μM IWP2, long term (>8 passages)): able to restore organoid competency; also recorded: acquired brain organoid competency; also recorded: improved organoid
- Effect: organoid morphology [1]: embedding stage improve

Molecule: O=C(NOC[C@H](O)CO)c1ccc(F)c(F)c1Nc1ccc(I)cc1F [PD0325901]
- Effect: improvement of organoid differentiation ([5]; generation of organoids with MEK inhibition): batch of kolf2, no
- Effect: organoid differentiation [6]: Some improvement in bad

Molecule: COc1ccc(N(C(=O)Oc2c(C)cccc2C)c2ccnc(Nc3ccc(N4CCN(C)CC4)cc3)n2)c(OC)c1 [WH-4-023]
- Effect: organoid differentiation outcome ([1]; inhibition of SRC at organoid generation, alone): no improvement alone,
- Effect: organoid differentiation outcome ([1]; inhibition of SRC at organoid generation, used alongside with HRG): improves outcome when used

Molecule: recombinant human laminin 521 [L521]
- Effect: organoid differentiation ([5]; culture on L521 micropatterns, areas of correct differentiation a small percentage of organoid volume): worked to some extent in fiaj 1
- Effect: organoid generation ([4]; PSC culture on L521): improved organoid generation

B1: DKK-1: Wnt inhibition at organoid stage, added at Matrigel embedding (protein, UniProt O94907 32-266, looked up)
Dickkopf-related protein 1: TLNSVLNSNAIKNLPPPLGGAAGHPGSAVSAAPGILYPGGNKYQTIDNYQPYPCAEDEECGTDEYCASPTRGGDAGVQICLACRKRRKRCMRHAMCCPGNYCKNGICVSSDQNHFRGEIEETITESFGNDHSTLDGYSRRTTLSSKMYHTKGQEGSVCLRSSDCASGLCCARHFWSKICKPVLKEGQVCTKHRRKGSHGLEIFQRCYCGEGLSCRIQKDHHQASNSSRLHTCQRH
- Effect: organoid morphology [1]: embedding stage improve
